The target of data set [1] is farnesyl protein transferase (Homo sapiens, UniProt P49354+P49356). The experiment in a line: In vitro assay for inhibition of farnesyl protein transferase. The data set is classed as biochemical. The settings on record: negative log value of the IC50-value; IC50 = concentration needed to reduce the product of the enzymatic reaction to 50% of the control; read-out: Enzyme activity pIC50 (converted). The protocol: An in vitro assay for inhibition of farnesyl transferase was performed essentially as described in WO 98/40383, pages 33-34. When appropriate, IC50-values (concentration of the drug, needed to reduce the product of the enzymatic reaction, to 50% of the conrol) were computed using probit analysis for graded data (Finney, D. J., Probit Analuses, 2nd Ed. Chapter 10, Graded Responses, Cambridge Univerity Press, Cambridge 1962). Herein (see table F-3) the effects of test compounds are expressed as pIC50 (the negative log value of the IC50-value). Also the intermediate compounds described in the table F-1 show activity in the in vitro assay for inhibition of farnesyl protein transferase.

Structures are written as SMILES.

What is called melting point is the temperature, or range, at which the solid turns liquid.

`Cn1cnnc1C(c1ccc(I)cc1)c1cc2c3c(c1)c(-c1cccc(Cl)c1)cc(=O)n3CC2` (stereo not shown) (hydrate or solvate) [Compound 1, 6-(3-chlorophenyl)-1,2-dihydro-8-[(4-iodophenyl)(4-methyl-4H-1,2,4-triazol-3-yl)methyl]-4H-pyrrolo[3,2,1-ij]quinolin-4-one] yielded a melting point of 194 °C. Turning to `Cn1cnnc1C(c1ccc(I)cc1)c1cc2c3c(c1)c(-c1cccc(Cl)c1)cc(=O)n3CC2` (stereo not shown) [Compound 1, 6-(3-chlorophenyl)-1,2-dihydro-8-[(4-iodophenyl)(4-methyl-4H-1,2,4-triazol-3-yl)methyl]-4H-pyrrolo[3,2,1-ij]quinolin-4-one], the IC50 in data set [1] is 21.4 nM. `Cn1cnnc1C(c1ccc(C#N)cc1)c1cc2c3c(c1)c(-c1cccc(Cl)c1)cc(=O)n3CC2` (stereo not shown) [Compound 2, 4-[[6-(3-chlorophenyl)-1,2-dihydro-4-oxo-4H-pyrrolo[3,2,1-ij]quinolin-8-yl](4-methyl-4H-1,2,4-triazol-3-yl)methyl]-benzonitrile] displayed a melting point of 174 °C. Moreover, in data set [1], the IC50 was 2.02 nM.

As for `Cn1cnnc1C(O)(c1ccc(Cl)cc1)c1cc2c3c(c1)c(-c1cccc(Cl)c1)cc(=O)n3CCC2` (stereo not shown) [Compound 3, 7-(3-chlorophenyl)-9-[(4-chlorophenyl)hydroxy(4-methyl-4H-1,2,4-triazol-3-yl)methyl]-2,3-dihydro-1H,5H-benzo[ij]quinolizin-5-one], the melting point turned out to be 183 °C. The IC50 in data set [1] was 8.18 nM.

On to `Cn1cnnc1C(O)(c1ccc(F)cc1)c1cc2c3c(c1)c(-c1cccc(Cl)c1)cc(=O)n3CC2` (stereo not shown) [Compound 4, 6-(3-chlorophenyl)-8-[(4-fluorophenyl)hydroxy(4-methyl-4H-1,2,4-triazol-3-yl)methyl]-1,2-dihydro-4H-pyrrolo[3,2,1-ij]quinolin-4-one], for which the IC50 in data set [1] is 5.77 nM. The compound `CC(=O)NC(c1ccc(F)cc1)(c1cc2c3c(c1)c(-c1cccc(Cl)c1)cc(=O)n3CC2)c1nncn1C` (stereo not shown) [Compound 5, N-[[6-(3-chlorophenyl)-1,2-dihydro-4-oxo-4H-pyrrolo[3,2,1-ij]quinolin-8-yl](4-fluorophenyl)(4-methyl-4H-1,2,4-triazol-3-yl)methyl]-acetamide] had a melting point of 196 °C. Besides, in data set [1], the IC50 is 3.4 nM. Take `COC(c1ccc(Cl)cc1)(c1cc2c3c(c1)c(-c1cccc(Cl)c1)cc(=O)n3CCC2)c1nncn1C` (stereo not shown) [Compound 6, 7-(3-chlorophenyl)-9-[(4-chlorophenyl)methoxy(4-methyl-4H-1,2,4-triazol-3-yl)methyl]-2,3-dihydro-1H,5H-benzo[ij]quinolizin-5-one]: the melting point stood at 132 °C. In addition, the IC50 in data set [1] was below 100 nM. For `Cn1cnnc1C(OCCO)(c1ccc(F)cc1)c1cc2c3c(c1)c(-c1cccc(Cl)c1)cc(=O)n3CC2` (stereo not shown) [Compound 7, 6-(3-chlorophenyl)-8-[(4-fluorophenyl)(2-hydroxyethoxy)(4-methyl-4H-1,2,4-triazol-3-yl)methyl]-1,2-dihydro-4H-pyrrolo[3,2,1-ij]quinolin-4-one], the melting point turned out to be 138 °C. The IC50 in data set [1] is 3.95 nM. In the case of `Cn1cnnc1C(c1ccc(F)cc1)(c1cc2c3c(c1)c(-c1cccc(Cl)c1)cc(=O)n3CC2)n1ccnc1` (stereo not shown) [Compound 8, 6-(3-chlorophenyl)-8-[(4-fluorophenyl)-1H-imidazol-1-yl(4-methyl-4H-1,2,4-triazol-3-yl)methyl]-1,2-dibydro-4H-pyrrolo[3,2,1-ij]quinolin-4-one], the IC50 in data set [1] was 3.84 nM. As for `Cn1cnnc1C(N)(c1ccc(F)cc1)c1cc2c3c(c1)c(-c1cccc(Cl)c1)cc(=O)n3CC2` (stereo not shown) [Compound 9, 8-[amino(4-fluorophenyl)(4-methyl-4H-1,2,4-triazol-3-yl)methyl]-6-(3-chlorophenyl)-1,2-dihydro-4H-pyrrolo[3,2,1-ij]quinolin-4-one], the IC50 in data set [1] was 2.98 nM. Still for that read-out and setting: with `COC(c1ccc(F)cc1)(c1cc2c3c(c1)c(-c1cccc(Cl)c1)cc(=O)n3CC2)c1nncn1C` (stereo not shown) [Compound 10, 6-(3-chlorophenyl)-8-[(4-fluorophenyl)methoxy(4-methyl-4H-1,2,4-triazol-3-yl)methyl]-1,2-dihydro-4H-pyrrolo[3,2,1-ij]quinolin-4-one] the figure was 29.3 nM. In the case of `Cn1cnnc1C(O)(c1ccc(Cl)cc1)c1cc2c3c(c1)c(-c1ccc(Cl)cc1)cc(=O)n3CC2` (stereo not shown) [Compound 11], the IC50 in data set [1] is below 100 nM.

On to `Cn1cnnc1C(O)(c1ccc(Cl)cc1)c1cc2c3c(c1)c(-c1cccc(Cl)c1)c(Br)c(=O)n3CC2` (stereo not shown) [Compound 12], for which the IC50 in data set [1] was above 100 nM. On to `Cn1cnnc1C(O)(c1ccc(Br)cc1)c1cc2c3c(c1)c(-c1cccc(Br)c1)cc(=O)n3CC2` (stereo not shown) [Compound 13], for which the IC50 in data set [1] is 5.86 nM.

(Values after patent publication US7408063B2, “1,8-annelated quinoline derivatives substituted with carbon-linked triazoles as farnesyl transferase inhibitors” (Janssen Pharmaceutica, N.V., priority 2001, dated 2008).)
